Measured values: publication PMC5658448, “From receptor binding kinetics to signal transduction; a missing link in predicting in vivo drug-action” (Scientific Reports, 2017)
Where two headings read alike, the source gives them in different places.

Assays:
NK1 receptor [1] = molecular target: T1, NK1 receptor (Homo sapiens, UniProt P25103); parameters: host or cells: U-251 MG cells; details: agonist alone; normalized to NKA only; cited from earlier work
NK1 receptor [2] = molecular target: T1, NK1 receptor; assay: Radioligand binding affinity at the NK1 receptor ([3H][Sar9,Met(O2)11]SP, CHOhNK1 membranes)
NK1 receptor [3] = molecular target: T1, NK1 receptor; assay: Dual-point competition association assay (kinetic rate index); assay type: binding; details: 4 °C; Bt1 (30 min)/Bt2 (120 min); vs radioligand [3H][Sar9,Met(O2)11]SP
Description: Dual-point competition association assays were performed as prescribed previously, following the radioligand binding protocol of Nederpelt et al.[27].
Data from dual-point competition association assays were analyzed by dividing the specific binding at t1 (Bt1) with the specific binding at t2 (Bt2).1 KRI=Bt1/Bt2 Data from morphology and cAMP experiments were analyzed as described previously. […] Results were normalized to the maximal response induced by agonist without antagonist.

[4] = molecular target: human neurokinin 1 receptor (Homo sapiens, UniProt P25103); assay: Real-time cAMP accumulation assay (GloSensor) in CHOhNK1 cells; assay type: cell-based; details: for type of antagonism (insurmountability): antagonist pre-incubation before SP or NKA, cAMP and morphology assays; for decrease of onset of NKA-induced cAMP production: antagonist pretreatment
Description: Real-time cAMP production was measured using the life cell cAMP GloSensor^TM assay[11],[12]. The technology is based on a cAMP-biosensor, which undergoes a conformational change upon cAMP binding, followed by the turnover of Luciferin.
CHOhNK1 cells were transiently transfected with the pGloSensor™-22F cAMP (6 ng/µL) plasmid using FuGene HD (3 µL:1 µg DNA plasmid) as a transfection reagent. Accordingly, cells were harvested and reconstituted to 0.5 × 10^6 cells/ml (10,000 cells/well) in DMEM/F-12/ HEPES supplemented with 1% FCS, 2 mM glutamine and 1 mg/ml G418. The diluted plasmid solution was combined with the transfection reagent and incubated for 20 min at room temperature. Subsequently, the transfection mixture and cell solution were mixed for additional 5 min before plating in 384-well plates. The transfected cells were incubated for 24 h at 37 °C + 5% CO2 followed by treatment with Glo-substrate (3% v/v) for 2 h at room temperature. […] Real-time changes in the level of cAMP were detected using an Envision HTS microplate reader 2103 (PerkinElmer).
(§1) The onset of receptor activation was analyzed by calculating the slope with linear regression of the first 8 minutes of the cellular response.2 onset=Δcellularresponse/Δtime

NK1 receptor [5] = molecular target: T1, NK1 receptor; assay: Impedance-based morphology assay (xCELLigence) in U-251 MG cells; assay type: cell-based; parameters: host or cells: U-251 MG cells; details: for Onset of receptor activation, morphology, NKA / Onset of receptor activation, morphology, SP / decrease of onset of NKA-induced morphological changes / decrease of onset of SP-induced impedance changes: first 8 min; for IC50: antagonist pre-incubation; for decrease of onset of NKA-induced morphological changes / decrease of onset of SP-induced impedance changes: antagonist pretreatment; for increase of EC50 value of NKA: xCELLigence, highest antagonist concentration
Description: Label-free morphology assays were performed using the xCELLigence RTCA system as described previously[27],[42].
as §1

NK1 receptor [6] = molecular target: T1, NK1 receptor; parameters: host or cells: U-251 MG cells; details: cited from earlier work
NK1 receptor [7] = molecular target: T1, NK1 receptor; parameters: host or cells: U-251 MG cells; details: room temperature; cited from earlier work
[8] = NKA after 0.07 nM antagonist, first 8 min
[9] = NKA after 0.07 nM antagonist, normalized to NKA only
[10] = NKA after 0.21 nM antagonist, first 8 min
[11] = NKA after 0.21 nM antagonist, normalized to NKA only
[12] = NKA after 0.7 nM antagonist, first 8 min
[13] = NKA after 0.7 nM antagonist, normalized to NKA only
[14] = SP after 0.07 nM antagonist, first 8 min
[15] = SP after 0.07 nM antagonist, normalized to SP only
[16] = SP after 0.21 nM antagonist, first 8 min
[17] = SP after 0.21 nM antagonist, normalized to SP only
[18] = SP after 0.7 nM antagonist, first 8 min
[19] = SP after 0.7 nM antagonist, normalized to SP only

T1 sequence (P25103 whole entry): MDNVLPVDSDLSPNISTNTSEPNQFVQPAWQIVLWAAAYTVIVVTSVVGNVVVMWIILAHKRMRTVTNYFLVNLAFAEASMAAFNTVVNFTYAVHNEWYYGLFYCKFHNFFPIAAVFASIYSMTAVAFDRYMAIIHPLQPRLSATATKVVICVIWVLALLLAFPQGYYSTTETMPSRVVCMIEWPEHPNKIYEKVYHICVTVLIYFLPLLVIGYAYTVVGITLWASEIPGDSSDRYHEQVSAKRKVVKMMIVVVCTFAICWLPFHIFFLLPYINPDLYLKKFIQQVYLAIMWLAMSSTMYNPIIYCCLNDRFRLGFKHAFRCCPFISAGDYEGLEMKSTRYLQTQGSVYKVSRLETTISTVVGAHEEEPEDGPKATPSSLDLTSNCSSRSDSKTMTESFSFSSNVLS
human neurokinin 1 receptor, sequence (P25103 whole entry): as above

In the case of CSCC[C@H](NC(=O)[C@H](CC(C)C)NC(=O)CNC(=O)[C@@H](NC(=O)[C@H](Cc1ccccc1)NC(=O)[C@H](CO)NC(=O)[C@H](CC(=O)O)NC(=O)[C@@H](NC(=O)[C@H](CCCCN)NC(=O)[C@@H](N)Cc1c[nH]cn1)[C@@H](C)O)C(C)C)C(N)=O [NKA, neurokinin A], the “Emax morphology NKA” value (NK1 receptor [1]) is listed as 100 ± 0.44 %.
With C[C@@H](O[C@H]1OCCN(Cc2n[nH]c(=O)[nH]2)[C@H]1c1ccccc1)c1cc(C(F)(F)F)cc(C(F)(F)F)c1 [DFA, desfluoro aprepitant] the pKi (NK1 receptor [2]) was 9.3 ± 0.04, the “KRI (kinetic rate index)” value (NK1 receptor [3]) was 1.0 ± 0.13 and the “Onset of receptor activation, cAMP, NKA” value [4, 8] was 98 ± 29^NS RLU min^−1. The “Emax cAMP NKA” value [4, 9] was 84 ± 18^NS %, the “Onset of receptor activation, cAMP, NKA” value [4, 10] was 98 ± 33^NS RLU min^−1 and the “Emax cAMP NKA” value [4, 11] was 67 ± 10 %. For the same compound, the “Onset of receptor activation, cAMP, NKA” value [4, 12] was 71 ± 22^NS RLU min^−1, the “Emax cAMP NKA” value [4, 13] was 61 ± 15 % and the “Onset of receptor activation, cAMP, SP” value [4, 14] was 125 ± 31^NS RLU min^−1. The “Emax cAMP SP” value [4, 15] was 78 ± 4.5 %, the “Onset of receptor activation, cAMP, SP” value [4, 16] was 120 ± 27^NS RLU min^−1 and the “Emax cAMP SP” value [4, 17] was 75 ± 7.7 %. The “Onset of receptor activation, cAMP, SP” value [4, 18] was 158 ± 26^NS RLU min^−1, the “Emax cAMP SP” value [4, 19] was 61 ± 10 % and the EC50 ([4]; SP after 30 min pre-incubation with 0.07 nM antagonist, read-out: EC50 cAMP SP) was 1.9 ± 0.5 nM. The EC50 ([4]; SP after 30 min pre-incubation with 0.21 nM antagonist, read-out: EC50 cAMP SP) was 2.7 ± 0.8 nM, the EC50 ([4]; SP after 30 min pre-incubation with 0.7 nM antagonist, read-out: EC50 cAMP SP) was 2.3 ± 0.7 nM and the “type of antagonism (insurmountability)” value [4] was “partially insurmountable”. For the same compound, the IC50 ([4]; antagonist pre-incubation, then EC80 concentration of NKA, read-out: IC50 (cAMP)) was 0.26 ± 0.08 nM, the IC50 ([4]; antagonist pre-incubation, then EC80 concentration of SP, read-out: IC50 (cAMP assay)) was 0.15 ± 0.02 nM and the “decrease of onset of NKA-induced cAMP production” value ([4]; first 8 min) was “did not significantly decrease”. The “decrease of potency of NKA” value ([4]; cAMP assay) was “did not affect”, the “decrease of Emax of SP in comparison to control” value ([4]; cAMP assay, highest antagonist concentration) was 39% and the EC50 ([4]; read-out: EC50 cAMP NKA, NKA after 30 min pre-incubation with 0.07 nM antagonist) was 399 ± 19 nM. For the same compound, the EC50 ([4]; read-out: EC50 cAMP NKA, NKA after 30 min pre-incubation with 0.21 nM antagonist) was 304 ± 89 nM, the EC50 ([4]; read-out: EC50 cAMP NKA, NKA after 30 min pre-incubation with 0.7 nM antagonist) was 1080 ± 356 nM and the “Onset of receptor activation, morphology, NKA” value (shortened to “Onset … morphology, NKA”) (NK1 receptor [5]; NKA after 0.07 nM antagonist) was 0.06 ± 0.005^NS NCI min^−1. For the same compound, the “Emax morphology NKA” value (NK1 receptor [5]; [9]) was 109 ± 7.6^NS %, the “Onset … morphology, NKA” value (NK1 receptor [5]; NKA after 0.21 nM antagonist) was 0.05 ± 0.007^NS NCI min^−1 and the “Emax morphology NKA” value (NK1 receptor [5]; [11]) was 108 ± 6.7^NS %. The “Onset … morphology, NKA” value (NK1 receptor [5]; NKA after 0.7 nM antagonist) was 0.04 ± 0.014^NS NCI min^−1, the “Emax morphology NKA” value (NK1 receptor [5]; [13]) was 81 ± 8.9 % and the “Onset of receptor activation, morphology, SP” value (“Onset … morphology, SP” below) (NK1 receptor [5]; SP after 0.07 nM antagonist) was 0.06 ± 0.006^NS NCI min^−1. For the same compound, the “Emax morphology SP” value (NK1 receptor [5]; [15]) was 97 ± 5.6^NS %, the “Onset … morphology, SP” value (NK1 receptor [5]; SP after 0.21 nM antagonist) was 0.05 ± 0.006^NS NCI min^−1 and the “Emax morphology SP” value (NK1 receptor [5]; [17]) was 104 ± 4.2^NS %. The “Onset … morphology, SP” value (NK1 receptor [5]; SP after 0.7 nM antagonist) was 0.03 ± 0.005 NCI min^−1, the “Emax morphology SP” value (NK1 receptor [5]; [19]) was 82 ± 6.9 % and the EC50 (NK1 receptor [5]; SP after 30 min pre-incubation with 0.07 nM antagonist, read-out: EC50 morphology SP) was 0.053 ± 0.02 nM. It also gave an EC50 (NK1 receptor [5]; SP after 30 min pre-incubation with 0.21 nM antagonist, read-out: EC50 morphology SP) of 0.06 ± 0.015 nM, an EC50 (NK1 receptor [5]; SP after 30 min pre-incubation with 0.7 nM antagonist, read-out: EC50 morphology SP) of 3 ± 1.3 nM and an IC50 (NK1 receptor [5]; then EC80 concentration of NKA, read-out: IC50 (morphology)) of 0.12 ± 0.006 nM. For the same compound, the IC50 (NK1 receptor [5]; then EC80 concentration of SP, read-out: IC50 (morphology assay)) was 0.22 ± 0.1 nM, the “decrease of onset of NKA-induced morphological changes” value (NK1 receptor [5]) was “did not significantly decrease” and the “decrease of onset of SP-induced impedance changes” value (NK1 receptor [5]) was “less significant”. It also gave an EC50 (NK1 receptor [5]; read-out: EC50 morphology NKA, NKA after 30 min pre-incubation with 0.07 nM antagonist) of 3 ± 0.52 nM, an EC50 (NK1 receptor [5]; read-out: EC50 morphology NKA, NKA after 30 min pre-incubation with 0.21 nM antagonist) of 3.3 ± 0.45 nM and an EC50 (NK1 receptor [5]; read-out: EC50 morphology NKA, NKA after 30 min pre-incubation with 0.7 nM antagonist) of 8.5 ± 0.46 nM. The “increase of EC50 value of NKA” value (NK1 receptor [5]) was 2 fold.
In the case of O=c1[nH]nc(CN2CCO[C@H](OCc3cc(C(F)(F)F)cc(C(F)(F)F)c3)[C@@H]2c2ccccc2)[nH]1 [L-742,694], the “effect on Emax of SP after pre-incubation” value (NK1 receptor [6]) is listed as “clear decrease”.
In the case of Cc1ccccc1-c1cc(N2CCN(C)CC2)ncc1N(C)C(=O)C(C)(C)c1cc(C(F)(F)F)cc(C(F)(F)F)c1 [netupitant], the type of antagonism (NK1 receptor [6]) is listed as “insurmountable”.
For C[C@@H](O[C@H]1OCCN(Cc2n[nH]c(=O)[nH]2)[C@H]1c1ccc(F)cc1)c1cc(C(F)(F)F)cc(C(F)(F)F)c1 [Aprepitant, aprepitant], the “Onset of receptor activation, cAMP, NKA” value [4, 8] was 75 ± 13^NS RLU min^−1, the “Onset of receptor activation, cAMP, NKA” value [4, 10] was 43 ± 7.7 RLU min^−1 and the “Onset of receptor activation, cAMP, NKA” value [4, 12] was 9.7 ± 1.6 RLU min^−1. The “Onset of receptor activation, cAMP, SP” value [4, 14] was 94 ± 13 RLU min^−1, the Emax ([4]; SP after 0.07 nM antagonist, normalized to SP only, read-out: Emax cAMP SP) was 62 ± 5.7% and the “Onset of receptor activation, cAMP, SP” value [4, 16] was 63 ± 17 RLU min^−1. The Emax ([4]; SP after 0.21 nM antagonist, normalized to SP only, read-out: Emax cAMP SP) was 55 ± 15%, the “Onset of receptor activation, cAMP, SP” value [4, 18] was 36 ± 7 RLU min^−1 and the Emax ([4]; SP after 0.7 nM antagonist, normalized to SP only, read-out: Emax cAMP SP) was 19 ± 5.5%. For the same compound, the “type of antagonism (insurmountability)” value [4] was “fully insurmountable”, the “decrease of onset of SP-induced cAMP production” value ([4]; antagonist pre-incubation, first 8 min) was “up to 6 fold” and the “decrease of onset of NKA-induced cAMP production” value ([4]; first 8 min) was 15 fold. For the same compound, the “decrease of potency of NKA” value ([4]; cAMP assay) was 10 fold, the Emax ([4]; cAMP assay, highest antagonist concentration, read-out: decrease of Emax of SP in comparison to control) was > 80% and the Emax ([4]; read-out: Emax cAMP NKA, NKA after 0.07 nM antagonist, normalized to NKA only) was 71 ± 13%. For the same compound, the Emax ([4]; read-out: Emax cAMP NKA, NKA after 0.21 nM antagonist, normalized to NKA only) was 43 ± 19%, the Emax ([4]; read-out: Emax cAMP NKA, NKA after 0.7 nM antagonist, normalized to NKA only) was 7.8 ± 4.2% and the “Onset … morphology, NKA” value (NK1 receptor [5]; NKA after 0.07 nM antagonist) was 0.05 ± 0.011^NS NCI min^−1. For the same compound, the “Onset … morphology, NKA” value (NK1 receptor [5]; NKA after 0.21 nM antagonist) was 0.03 ± 0.007^NS NCI min^−1, the “Onset … morphology, NKA” value (NK1 receptor [5]; NKA after 0.7 nM antagonist) was 0.006 ± 0.003 NCI min^−1 and the “Onset … morphology, SP” value (NK1 receptor [5]; SP after 0.07 nM antagonist) was 0.05 ± 0.002^NS NCI min^−1. The “Onset … morphology, SP” value (NK1 receptor [5]; SP after 0.21 nM antagonist) was 0.04 ± 0.006^NS NCI min^−1, the “Onset … morphology, SP” value (NK1 receptor [5]; SP after 0.7 nM antagonist) was 0.009 ± 0.003 NCI min^−1 and the Emax (NK1 receptor [5]; U-251, SP after 0.07 nM antagonist, normalized to SP only, read-out: Emax morphology SP) was 96 ± 7.6%. The Emax (NK1 receptor [5]; U-251, SP after 0.21 nM antagonist, normalized to SP only, read-out: Emax morphology SP) was 79 ± 5%, the Emax (NK1 receptor [5]; U-251, SP after 0.7 nM antagonist, normalized to SP only, read-out: Emax morphology SP) was 53 ± 8.5% and the Emax (NK1 receptor [5]; U-251, read-out: Emax morphology NKA, NKA after 0.07 nM antagonist, normalized to NKA only) was 97 ± 2.3%. For the same compound, the Emax (NK1 receptor [5]; U-251, read-out: Emax morphology NKA, NKA after 0.21 nM antagonist, normalized to NKA only) was 79 ± 10%, the Emax (NK1 receptor [5]; U-251, read-out: Emax morphology NKA, NKA after 0.7 nM antagonist, normalized to NKA only) was 30 ± 6.2% and the “decrease of onset of NKA-induced morphological changes” value (NK1 receptor [5]) was 8 fold. The “decrease of onset of SP-induced impedance changes” value (NK1 receptor [5]) was 5 fold, the “increase of EC50 value of NKA” value (NK1 receptor [5]) was 7 fold and the receptor dissociation rate (NK1 receptor [7]) was 0.0054 min⁻¹.
